Laboratory results as given in PMC11571215, “Optimization of Antiproliferative Properties of Triimine Copper(II) Complexes” (Journal of Medicinal Chemistry, 2024).
Each block holds one molecule with its values, some of them ahead of it.

What was measured:
[1] = test system: HCT116-DoxR cells; test: Cell cycle progression analysis (PI, flow cytometry); format: cell-based, human; conditions: complexes at IC50, Dox 6 μM, Cis 5 μM; 9, 12, 18, 24 h after double thymidine block
Description: It is important to note that exposure to increased levels of ROS can trigger genotoxic stress, an effect often associated with chemotherapy and that may promote cell cycle arrest.[84] The cell cycle comprises a sequential set of cellular events such as checkpoints that regulate transitions between different phases when cells are under stress conditions. Indeed, if DNA damage occurs, interphase checkpoints can trigger cell cycle arrest, repair, and induction of apoptosis or senescence.[85] Indeed, data in Table 7 show some degree of accumulation of both complexes in the nucleus, which may expose the genomic DNA to their action. […] This DNA intercalating fluorophore allows the analysis of DNA content in various phases of the cell cycle (G0/G1, S, and G2/M) (the fluorescence intensity emitted by PI doubles with the duplication of DNA quantity in the G1 and G2 phases),[86] and its detection can be performed by flow cytometry. […] To ensure that all cells were in the same phase of the cell cycle (S phase) when exposed to the Cu(II) complexes and controls, a double thymidine block was applied.[83]
HCT116-DoxR cells were cultured in six-well plates at a density of 1 × 10^5 cells/mL and incubated at 37 °C, 5% (v/v) CO2, and 99% (v/v) relative humidity for 8 h. To ensure that cells were in the same phase of the cell cycle, they were subjected to a double thymidine block for synchronization. At the end of the incubation, the culture medium was replaced with 2 mM thymidine in complete medium, and cells were incubated for 16 h. After incubation, the thymidine-containing medium was replaced with a thymidine-free complete medium, and cells were incubated for an additional 8 h. After this time, a second thymidine block was applied, as described earlier. At the end of the incubation, the thymidine-containing medium was replaced with a fresh medium containing the cooper complexes at their IC50 concentration. A 0.1% (v/v) DMSO solution was used as vehicle control, while 6 μM Dox, and 5 μM Cis were used as positive controls. Cells were incubated again for 9, 12, 18, and 24 h. Immediately after exposure (0 h) and at the end of each incubation period, the medium was removed, cells detached with TrypLE Express, and centrifuged for 5 min at 650 × g, at 4 °C. The pellet was resuspended in cold PBS 1× and centrifuged at 3000 × g for 5 min, at 4 °C. Later, the pellet was resuspended in cold PBS 1×, and 1 mL of 80% (v/v) cold ethanol was added dropwise to each tube. […] The DNA content was evaluated on an Attune acoustic focusing flow cytometer (Life Technologies, Carlsbad, USA), and the results were analyzed by the respective software (Attune Cytometric software).

[2] = test system: A2780 cells (ovarian carcinoma); test: MTS cell viability assay, A2780; format: cell-based, human; conditions: for IC50: 48 h of exposure, MTS, relative IC50, mean + SEM; for SI A2780: ratio IC50 fibroblasts / IC50 A2780
Protocol: (§1) The antiproliferative effect of the Cu(II) complexes in tumor and healthy cell lines was assessed through the MTS assay, a colorimetric method that is widely used to evaluate cellular viability, specifically mitochondrial viability.[53],[54] Cellular viability was determined after 48 h exposure to a concentration range (0.1–50 μM) of Cu(II) complexes in three tumor cell lines. […] Additionally, the viability of healthy primary dermal fibroblasts was performed as a comparison of the complexes’ antiproliferative effects in normal cells.
(§2) Cellular viability assays were performed using HCT116, HCT116-DoxR, and A2780 cancer cell lines as well as normal human primary fibroblasts. Cells were seeded at a density of 0.75 × 10^5 cells/mL in 96-well plates and incubated at 37 °C with 5% (v/v) CO2 for 24 h. After this incubation period, the copper complexes were accurately weighed and immediately dissolved in 100% (v/v) dimethyl sulfoxide (DMSO). Subsequently, the complexes were diluted to the final concentration using a cell culture medium. The culture medium in each well was replaced with fresh medium containing varying concentrations of the complexes (ranging from 0.01 to 50 μM). Negative controls contained culture medium with 0.1% (v/v) DMSO, and positive controls contained 0.4 μM Dox.
(§3) After an additional 48 h of incubation under the same conditions, cellular viability was assessed using the CellTiter 96 Aqueous One Solution Cell Proliferation Assay kit (Promega, Madison, USA). Metabolically active cells contain mitochondrial dehydrogenases that can reduce 3-(4,5-dimethylthiazol-2-yl)-5-(3-carboxymethoxyphenyl)-2-(4-sulfophenyl)-2H-tetrazolium, the inner salt (MTS) to formazan. The absorbance of formazan, measured at 490 nm in a microplate reader (Tecan Infinite M200, Tecan, Männedorf, Switzerland), is directly proportional to the number of viable cells.[104]
(§4) The cell viability versus concentration graphics were analyzed using Prism 8 software (GraphPad) to determine the half-maximal inhibitory concentration (IC50) of each complex for the respective cell line. Additionally, the selective index (SI) for each complex was calculated by dividing the IC50 of human fibroblasts by the IC50 values of the tested cancer cell lines.

[3] = test system: HCT116 cells (colorectal carcinoma); test: MTS cell viability assay, HCT116 2D; format: cell-based, human; conditions: for IC50: 48 h of exposure, MTS, relative IC50, mean + SEM; for SI HCT116: ratio IC50 fibroblasts / IC50 HCT116
Protocol: as §1, §2, §3, §4

[4] = Stability/solubility in RPMI culture medium by UV-vis; format: physicochemical; conditions: 50 μM, without phenol red and FBS, 0 to 3 h, 37 °C
Protocol: The complexes (powder form) were first dissolved in 100% (v/v) DMSO and subsequently in RPMI culture medium without phenol red and fetal bovine serum (FBS), at a final concentration of 50 μM. Absorption spectra were recorded in the wavelength range of 220–800 nm. As previously, high-energy absorption bands corresponding to π → π* and n → π* transitions with peaks between 230 and 380 nm ranges were observed, which may correspond to the aromatic rings of terpyridine.[24],[38]
Copper complex stability in a biological medium was analyzed through UV–vis spectroscopy spanning a range from 220 to 800 nm. Complexes were dissolved in 100% (v/v) DMSO and subsequently diluted with RPMI medium (without phenol red) to achieve a final concentration of 50 μM. The measurements were conducted in a quartz cuvette with a 1 cm path length. Spectral analyses were obtained after 0, 3, 6, 24, and 48 h on the Evolution 300 UV–vis spectrophotometer (Thermo Fisher Scientific in Waltham, MA, USA).

Structure (SMILES): N.N.[Cl][Pt][Cl] [Cisplatin]
effect on cell cycle progression [1]: has a cytostatic effect in G2/M after incubation for 24 h
IC50 [2]: 1900 ± 200 nM
IC50 [3]: 15600 ± 5300 nM

Structure (SMILES): [Cl][Cu-3]12([Cl])[n+]3ccccc3-c3cc(-c4cccc5ccccc45)cc([n+]31)-c1cccc[n+]12 [Cu1a]
effect on cell cycle progression [1]: a delay in the cell cycle at the S phase after 9 h, in the G2/M after 12 h of incubation, and a delay in the cell cycle at G0/G1 at 18 h
IC50 [2]: 530 ± 70 nM
SI A2780 [2]: 17.5
solubility/stability in RPMI culture medium [4]: maintenance of solubility
IC50 [3]: 280 ± 30 nM
SI HCT116 [3]: 33.1

Structure (SMILES): [Cl][Cu-3]12([Cl])[n+]3ccccc3-c3cc(-c4ccc5ccccc5c4)cc([n+]31)-c1cccc[n+]12 [Cu1b]
effect on cell cycle progression [1]: a delay in the cell cycle at the S phase after 9 h, in the G2/M after 12 h of incubation, and a delay in the cell cycle at G0/G1 at 18 h
IC50 [2]: 570 ± 60 nM
SI A2780 [2]: 23.3
solubility/stability in RPMI culture medium [4]: a slight reduction of its solubility from 0 to 3 h
IC50 [3]: 210 ± 50 nM
SI HCT116 [3]: 63.3

IC50 ([2]; Homo sapiens, A2780): 100 ± 40 nM
IC50 ([3]; Homo sapiens, HCT-116): 500 ± 100 nM
Structure (SMILES): COc1cccc2c1C(=O)c1c(O)c3c(c(O)c1C2=O)C[C@@](O)(C(=O)CO)C[C@@H]3O[C@H]1C[C@H](N)[C@H](O)[C@H](C)O1 [Doxorubicin]
effect on cell cycle progression [1]: did not affect the cell cycle progression or cause an arrest
